Our source for the IC50 and melting point values is patent publication US20060223874A1, “Heterocyclic reverse transcriptase inhibitors” (Roche Palo Alto LLC, priority 2005, published 2006).

The target in data set [1] is Wild Type HIV-RT (Human immunodeficiency virus type 1 group M subtype B, UniProt P03366). Description: HIV Reverse Transcriptase Assay: Inhibitor IC50 Determination. The format is biochemical. Conditions: purified recombinant HIV-1 RT, poly(rA)/oligo(dT)16 template-primer, 37° C. for 30 min. The protocol: HIV Reverse Transcriptase Assay: Inhibitor IC50 Determination
HIV-1 RT assay was carried out in 96-well Millipore MultiScreen MADVNOB50 plates using purified recombinant enzyme and a poly(rA)/oligo(dT)16 template-primer in a total volume of 50 μL. The assay constituents were 50 mM Tris/HCl, 50 mM NaCl, 1 mM EDTA, 6 mM MgCl2, 5 μM dTTP, 0.15 μCi [^3H] dTTP, 5 μg/ml poly (rA) pre annealed to 2.5 μg/ml oligo (dT)16 and a range of inhibitor concentrations in a final concentration of 10% DMSO. Reactions were initiated by adding 4 nM HIV-1 RT and after incubation at 37° C. for 30 min, they were stopped by the addition of 50 μl ice cold 20% TCA and allowed to precipitate at 4° C. for 30 min. The precipitates were collected by applying vacuum to the plate and sequentially washing with 3×200 μl of 10% TCA and 2×200 μl 70% ethanol. Finally, the plates were dried and radioactivity counted in a Packard TopCounter after the addition of 25 μl scintillation fluid per well. IC50's were calculated by plotting % inhibition versus log10 inhibitor concentrations. (TABLE 2)

In the case of `COc1ccc(Cc2n[nH]c(=O)n2C)c(F)c1Oc1cc(Cl)cc(C#N)c1` [Compound I-1, 3-chloro-5-[2-fluoro-6-methoxy-3-(4-methyl-5-oxo-4,5-dihydro-1H-[1,2,4]triazol-3-ylmethyl)-phenoxy]-benzonitrile], the melting point lay in the range of 219.1 to 220.1 °C. Also, the IC50 in data set [1] was 45.6 nM. On to `COc1ccc(Cc2n[nH]c(=O)n2C)c(F)c1Oc1cc(C#N)cc(C(F)F)c1` [Compound I-2, 3-Difluoromethyl-5-[2-fluoro-6-methoxy-3-(4-methyl-5-oxo-4,5-dihydro-1H-[1,2,4]triazol-3-ylmethyl)-phenoxy]-benzonitrile], for which, in data set [1], the IC50 came out at 12.9 nM.

Broadly, the IC50 is the concentration that inhibits the measured activity by half. Usually melting point stands for the temperature of the solid-liquid transition.
